The record followed here is ChEMBL document CHEMBL1124635, “A probe for octopamine receptors: synthesis of 2-[(4-azido-2,6-diethylphenyl)imino]imidazolidine and its tritiated derivative, a potent reversible-irreversible activator of octopamine-sensitive adenylate cyclase” (J Med Chem, 1989).

Data set [1] relates to Lampyridae. As to the kind of experiment: V max is determined from stimulation of firefly light organ adenylate cyclase. It is filed as functional.
Data set [2] relates to Lampyridae. As to the kind of experiment: Vmax is determined from stimulation of firefly light organ adenylate cyclase. The format is functional.
Data set [3] is described as follows: Ratio of (Ka) of octopamine to that of compound. The format is ADME.
A short description of data set [4]: Kinetic constant (Ka) of compound against octopamine receptor. It is filed as ADME.

With `CCc1cc(N=[N+]=[N-])cc(CC)c1NC1=NCCN1`, the Vmax in the data set on Lampyridae [1] and with Lampyridae [1] (tested as the 3H-labelled form) was 100% throughout.

In the case of `CCc1cccc(CC)c1NC1=NCCN1`, the Vmax in the data set with Lampyridae [2] was 100%. Besides, the Ratio in data set [3] is given as 12.

`CCc1c(Br)c(N)c(Br)c(CC)c1NC1=NCCN1`: in the data set with Lampyridae [1], the Vmax was 24%.

With `NCC(O)c1ccc(O)cc1` (stereo not given) [OCTOPAMINE], in the data set with Lampyridae [1], the Vmax amounted to 100%. The Ratio in data set [3] is recorded as 1.

With `CN(CCCl)c1cc(Cl)c(N=C2NCCN2)c(Cl)c1`, the Ratio in data set [3] was found to be 6.

For the molecule `CN(CCCl)c1cc(Cl)c(NC2=NCCN2)c(Cl)c1`, the Vmax with Lampyridae [1] amounted to 5%.

Consider `CCc1c(Br)c(N)c(Br)c(CC)c1N=C1NCCN1`, for which, in data set [3], the Ratio is recorded as 15.

Turning to `CCc1cc(N)cc(CC)c1NC1=NCCN1`, in the data set on Lampyridae [1], the Vmax stood at 82%.

For the molecule `CCc1cc(N)cc(CC)c1N=C1NCCN1`, the Ratio in data set [3] turned out to be 1.3.

For the molecule `CCc1cc(N=[N+]=[N-])cc(CC)c1N=C1NCCN1`, the Ka in data set [4] is listed as 350 nM. For the same molecule, the Ratio in data set [3] worked out at 70.

As for `[3H]c1c(CC)c(N=C2NCCN2)c(CC)c([3H])c1N=[N+]=[N-]`, the Ratio in data set [3] is recorded as 86.
